Source: patent US9000175B2, “Bicyclic GPR119 modulators” (Lupin Limited, priority 2010, dated 2015)

Biological target: T1, human GPR119 (Homo sapiens, UniProt Q8TDV5)
T1 construct: expressed in transfected cells
T1 sequence (Q8TDV5 1-335): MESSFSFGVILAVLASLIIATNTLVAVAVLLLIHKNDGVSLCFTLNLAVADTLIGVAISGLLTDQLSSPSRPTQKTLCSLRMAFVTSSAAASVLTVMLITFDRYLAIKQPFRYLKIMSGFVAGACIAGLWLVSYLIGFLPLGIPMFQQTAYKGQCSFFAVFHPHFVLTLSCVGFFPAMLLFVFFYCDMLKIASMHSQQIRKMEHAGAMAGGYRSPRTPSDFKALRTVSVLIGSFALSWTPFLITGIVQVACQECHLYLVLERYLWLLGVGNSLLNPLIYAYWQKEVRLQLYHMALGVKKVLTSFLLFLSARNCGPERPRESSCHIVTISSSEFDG
Experiment: Cyclic AMP assay in stable cell line
Type: cell-based
Details: CHO-K1 cells stably transfected with human GPR119; cAMP levels (FRET, cAMP femto kit); 1 h at 37° C; read-out: EC50 Range
Method: Cyclic AMP Assay in Stable Cell Line:
Chinese Hamster Ovary (CHO-K1) cells were stably transfected with human GPR119 and were maintained in Ham's F-12 complete medium containing 10% heat inactivated FBS (Sigma, UK). The cells were maintained under a selection pressure with 500 μg/ml G418 (GENETICIN). Stable clones were analyzed for functional cAMP response to OEA (oleoylethanolamide).
To estimate activation of GPR119 and induction of cAMP levels by GPR119 agonists, cells were serum starvation for 18-24 h, trypsinized and seeded in 96 well plates at a, density of 7500 cells/well. The cells were then treated with test compounds diluted in serum free Ham's F12 for 1 h at 37° C. The cAMP levels were measured by using the cAMP femto kit (CisBio) by following the manufacturer's instructions. Following treatment with a test compound, the cells were lysed and cAMP levels were estimated by adding D2-labelled cAMP and europium-cryptate conjugated anti-cAMP antibody. Close proximity of D2 and cryptate results in FRET and the subsequent fluorescence that is measured at 665 and 620 nm. The FRET response is calculated as the ratio of fluorescence at 665 to fluorescence at 620 nm. The unlabelled cAMP produced as a result of GPR119 activation/agonism competes with the D2-cAMP leading to a decrease in the FRET signal. Thus the FRET signal is inversely proportional to the amount of cAMP produced by the treated cells. In a separate set of wells, known concentrations of cAMP were added in order to get a standard linear curve for extrapolation of the cAMP values in the unknown/test samples. Fluorescence was measured on BMG Labtech PHERAstar machine.
The concentration of compound required to stimulate a half-maximal response (EC50) was determined using the GraphPad Prism software.
The compounds prepared were tested using the above assay procedure and the results obtained are given below.

EC50	Structure (SMILES)
< 50 nM	CCc1cnc(N2CCC(Oc3ccc(-n4ccc5cc(C(=O)NC)ccc54)nc3)CC2)nc1 [Example-63, 1-(5-((1-(5-Ethylpyrimidin-2-yl)piperidin-4-yl)oxy)pyridin-2-yl)-N-methyl-1H-indole-5-carboxamide]
< 50 nM	CC(C)C(=O)Nc1ccc2c(ccn2-c2ccc(OC3CCN(C(=O)C(C)C)CC3)cn2)c1 [Example-127, N-(1-(5-((1-Isobutyrylpiperidin-4-yl)oxy)pyridin-2-yl)-1H-indol-5-yl) isobutyramide]
< 50 nM	CCOC(=O)Nc1ccc2c(ccn2-c2ccc(OC3CCN(c4nc(C(C)C)no4)CC3)cn2)c1 [Example-141, Ethyl(1-(5-((1-(3-isopropyl-1,2,4-oxadiazol-5-yl)piperidin-4-yl)oxy)pyridin-2-yl)-1H-indol-5-yl)carbamate]
50 to 250 nM	CCc1noc(N2CCC(Oc3ccc(-n4ccc5cc(C(=O)N(C)C)ccc54)nc3)CC2)n1 [Example-147, 1-(5-((1-(3-Ethyl-1,2,4-oxadiazol-5-yl)piperidin-4-yl)oxy)pyridin-2-yl)-N,N-dimethyl-1H-indole-5-carboxamide]
250 to 1000 nM	CC(C)OC(=O)N1CCC(Oc2ccc(-n3ccc4cc(N5CCOC5=O)ccc43)nc2)CC1 [Example-166, Isopropyl 4-((6-(5-(2-oxooxazolidin-3-yl)-1H-indol-1-yl)pyridin-3-yl)oxy)piperidine-1-carboxylate]
< 50 nM	CC(C)OC(=O)N1CCC(Oc2ccc(-n3ccc4cc(S(C)(=O)=O)ccc43)nc2)CC1 [Example-169, Isopropyl 4-((6-(5-(methylsulfonyl)-1H-indol-1-yl)pyridin-3-yl)oxy) piperidine-1-carboxylate]
50 to 250 nM	CCOC(=O)N1CCC(Oc2ccc(-n3ccc4cc(N5CCCC5=O)ccc43)nc2)CC1 [Example-182, Ethyl 4-((6-(5-(2-oxopyrrolidin-1-yl)-1H-indol-1-yl)pyridin-3-yl)oxy) piperidine-1-carboxylate]
50 to 250 nM	CCOC(=O)N1CCC(Oc2ccc(-n3ccc4cc(S(C)(=O)=O)ccc43)nc2)CC1 [Example-185, Ethyl-4-((6-(5-(methylsulfonyl)-1H-indol-1-yl)pyridin-3-yl)oxy)-piperidine-1-carboxylate]
< 50 nM	CCOC(=O)N1CCC(Oc2ccc(-n3ccc4cc(-n5cnnn5)ccc43)nc2)CC1 [Example-187, Ethyl-4-((6-(5-(1H-tetrazol-1-yl)-1H-indol-1-yl)pyridin-3-yl)oxy)-piperidine-1-carboxylate]
< 50 nM	CCc1cnc(N2CCC(Oc3ccc(-n4ccc5cc(-n6cncn6)ccc54)nc3)CC2)nc1 [Example-190, 1-(5-((1-(5-Ethylpyrimidin-2-yl)piperidin-4-yl)oxy)pyridin-2-yl)-5-(1H-1,2,4-triazol-1-yl)-1H-indole]
250 to 1000 nM	CCOC(=O)N1CCC(Oc2ccc(-n3ccc4cc(-n5cncn5)ccc43)nc2)CC1 [Example-192, Ethyl-4-((6-(5-(1H-1,2,4-triazol-1-yl)-1H-indol-1-yl)pyridin-3-yl)oxy) piperidine-1-carboxylate]

The next lines start with the compound.

Structure (SMILES)	EC50
CCc1cnc(N2CCC(Oc3ccc(-n4ccc5cc(NC(=O)OC(C)C)ccc54)nc3)CC2)nc1 [Example-132, Isopropyl(1-(5-((1-(5-ethylpyrimidin-2-yl)piperidin-4-yl)oxy)pyridin-2-yl)-1H-indol-5-yl)carbamate]	< 50 nM
CC(C)NC(=O)c1ccc2c(c1)CCN2c1ccc(OC2CCN(C(=O)OC(C)(C)C)CC2)cn1 [Example-136, tert-Butyl-4-((6-(5-(isopropylcarbamoyl)indolin-1-yl)pyridin-3-yl)-oxy) piperidine-1-carboxylate]	< 50 nM
CCc1noc(N2CCC(Oc3ccc(-n4ccc5cc(NC(=O)OC(C)C)ccc54)nc3)CC2)n1 [Example-143, Isopropyl(1-(5-((1-(3-ethyl-1,2,4-oxadiazol-5-yl)piperidin-4-yl)oxy)pyridin-2-yl)-1H-indol-5-yl)carbamate]	< 50 nM
CS(=O)(=O)c1ccc2c(ccn2-c2ccc(OC3CCN(Cc4ccc(C(F)(F)F)cc4)CC3)cn2)c1 [Example-153, 5-(Methylsulfonyl)-1-(5-((1-(4-(trifluoromethyl)benzyl)piperidin-4-yl)oxy)pyridin-2-yl)-1H-indole]	50 to 250 nM
CCc1cnc(N2CCC(Oc3ccc(-n4ccc5cc(OC)cnc54)nc3)CC2)nc1 [Example-157, 1-(5-((1-(5-Ethylpyrimidin-2-yl)piperidin-4-yl)oxy)pyridin-2-yl)-5-methoxy-1H-pyrrolo[2,3-b]pyridine]	50 to 250 nM
CCc1cnc(N2CCC(Oc3ccc(-n4cc(C)c5cc(S(C)(=O)=O)ccc54)nc3)CC2)nc1 [Example-168, 1-(5-((1-(5-Ethylpyrimidin-2-yl)piperidin-4-yl)oxy)pyridin-2-yl)-3-methyl-5-(methylsulfonyl)-1H-indole]	< 50 nM
CCc1cnc(N2CCC(Oc3ccc(-n4ccc5cc(S(C)(=O)=O)cc(F)c54)nc3)CC2)nc1 [Example-171, 1-(5-((1-(5-Ethylpyrimidin-2-yl)piperidin-4-yl)oxy)pyridin-2-yl)-7-fluoro-5-(methylsulfonyl)-1H-indole]	< 50 nM
CS(=O)(=O)c1ccc2c(ccn2-c2ccc(OC3CCN(CC4(C(F)(F)F)CC4)CC3)cn2)c1 [Example-193, 5-(Methylsulfonyl)-1-(5-((1-((1-(trifluoromethyl)cyclopropyl)methyl)-piperidin-4-yl)oxy)pyridin-2-yl)-1H-indole]	< 50 nM

System: C57 BL/6J mice
Experiment: Oral glucose tolerance test
Type: in vivo
Details: blood glucose delta AUC; male C57 BL/6J mice fasted 16 h; 10 mg/kg oral gavage 30 min before glucose bolus 3 g/kg; 20-120 min
Method: Oral Glucose Tolerance Test:
9-10 weeks old male C57 BL/6J mice were maintained on a regular chow diet. The day of the experiment mice were fasted for 16 h and then randomized in to groups (n=7-8) based on blood glucose and bodyweight to receive vehicle (80% PEG400, 10% Tween80, 10% Ethanol) or test compounds (at 10 mg/kg). Vehicle or test compounds were delivered via oral gavage at 10 ml/kg volume. Thirty minutes later, the mice were dosed orally with a glucose bolus (3 g/kg) at 10 ml/kg volume. Blood glucose measurements were taken at 20, 40, 60 and 120 minutes after glucose administration by glucometer (CONTOUR TS, Bayer). Total AUC and Delta AUC were calculated by using graph pad prism (5.0).

Structure (SMILES)	% reduction in delta AUC at 10 mg/kg
CCc1cnc(N2CCC(Oc3ccc(-n4ccc5cc(C(=O)NC)ccc54)nc3)CC2)nc1 [Example-63, 1-(5-((1-(5-Ethylpyrimidin-2-yl)piperidin-4-yl)oxy)pyridin-2-yl)-N-methyl-1H-indole-5-carboxamide]	28%
CCOC(=O)Nc1ccc2c(ccn2-c2ccc(OC3CCN(c4nc(CC)no4)CC3)cn2)c1 [Example-142, Ethyl(1-(5-((1-(3-ethyl-1,2,4-oxadiazol-5-yl)piperidin-4-yl)oxy)pyridin-2-yl)-1H-indol-5-yl)carbamate]	35%

Same assay, conditions: blood glucose total AUC; male C57 BL/6J mice fasted 16 h; 10 mg/kg oral gavage 30 min before glucose bolus 3 g/kg; 20-120 min

Structure (SMILES)	% reduction in total AUC at 10 mg/kg
CCc1cnc(N2CCC(Oc3ccc(-n4ccc5cc(C(=O)NC)ccc54)nc3)CC2)nc1 [Example-63, 1-(5-((1-(5-Ethylpyrimidin-2-yl)piperidin-4-yl)oxy)pyridin-2-yl)-N-methyl-1H-indole-5-carboxamide]	19%
CCOC(=O)Nc1ccc2c(ccn2-c2ccc(OC3CCN(c4nc(CC)no4)CC3)cn2)c1 [Example-142, Ethyl(1-(5-((1-(3-ethyl-1,2,4-oxadiazol-5-yl)piperidin-4-yl)oxy)pyridin-2-yl)-1H-indol-5-yl)carbamate]	20%
